Data reported in BindingDB's records for doi:10.1074/jbc.M111.292243 (University of Copenhagen, 2012).
pKi: −log10 of the molar value.

Assays:
Assay in all cases: Radioligand Competition Assay
[1] = target: Neuronal acetylcholine receptor subunit alpha-4 (Rattus norvegicus, UniProt P09483)
[2] = target: Neuronal acetylcholine receptor subunit alpha-7 (Rattus norvegicus, UniProt Q05941)
[3] = target: Acetylcholine-binding protein (Lymnaea stagnalis, UniProt P58154)
Sequence of Acetylcholine-binding protein (P58154 whole entry): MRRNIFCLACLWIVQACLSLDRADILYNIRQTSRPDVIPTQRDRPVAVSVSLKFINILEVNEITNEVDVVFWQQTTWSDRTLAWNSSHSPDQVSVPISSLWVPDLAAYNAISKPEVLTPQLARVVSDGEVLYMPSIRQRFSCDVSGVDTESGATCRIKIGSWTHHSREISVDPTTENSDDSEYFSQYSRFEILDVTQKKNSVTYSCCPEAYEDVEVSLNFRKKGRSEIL

Sequence of Neuronal acetylcholine receptor subunit alpha-4 (P09483 whole entry): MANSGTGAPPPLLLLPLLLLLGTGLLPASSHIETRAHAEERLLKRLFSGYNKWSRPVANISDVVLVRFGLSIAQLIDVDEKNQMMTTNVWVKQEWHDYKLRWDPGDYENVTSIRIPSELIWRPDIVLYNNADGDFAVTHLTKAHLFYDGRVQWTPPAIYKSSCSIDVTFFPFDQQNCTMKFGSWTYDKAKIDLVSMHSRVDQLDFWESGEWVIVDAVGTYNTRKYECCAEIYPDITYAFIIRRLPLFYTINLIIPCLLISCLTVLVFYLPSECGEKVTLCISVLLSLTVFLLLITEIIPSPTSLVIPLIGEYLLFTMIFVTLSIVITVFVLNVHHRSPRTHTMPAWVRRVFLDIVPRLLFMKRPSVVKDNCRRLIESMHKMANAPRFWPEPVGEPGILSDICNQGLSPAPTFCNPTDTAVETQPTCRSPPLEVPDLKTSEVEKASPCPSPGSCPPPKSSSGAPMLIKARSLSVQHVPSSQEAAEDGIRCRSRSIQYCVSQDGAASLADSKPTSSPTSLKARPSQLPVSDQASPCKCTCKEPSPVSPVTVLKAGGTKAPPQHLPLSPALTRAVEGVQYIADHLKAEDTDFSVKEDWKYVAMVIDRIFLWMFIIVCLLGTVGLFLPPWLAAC
Sequence of Neuronal acetylcholine receptor subunit alpha-7 (Q05941 whole entry): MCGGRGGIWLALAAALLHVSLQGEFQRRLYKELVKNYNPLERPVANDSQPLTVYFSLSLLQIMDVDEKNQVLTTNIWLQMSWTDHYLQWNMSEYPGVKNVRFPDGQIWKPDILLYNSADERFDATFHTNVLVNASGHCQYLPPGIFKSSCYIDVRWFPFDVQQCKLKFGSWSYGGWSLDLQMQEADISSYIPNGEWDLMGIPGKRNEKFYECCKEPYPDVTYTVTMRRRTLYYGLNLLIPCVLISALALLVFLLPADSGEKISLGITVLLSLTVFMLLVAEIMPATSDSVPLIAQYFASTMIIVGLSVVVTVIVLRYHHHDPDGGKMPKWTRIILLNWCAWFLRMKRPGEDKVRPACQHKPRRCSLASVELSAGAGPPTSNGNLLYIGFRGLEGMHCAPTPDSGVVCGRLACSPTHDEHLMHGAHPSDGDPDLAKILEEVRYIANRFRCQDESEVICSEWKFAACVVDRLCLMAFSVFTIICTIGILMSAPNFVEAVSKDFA

| SMILES | pKi [1] | pKi [2] | pKi [3] |
| --- | --- | --- | --- |
| c1ccc(-c2cncc(N3CCCNCC3)c2)cc1 | 9.10 | < 5.00 | – |
| c1cncc(N2CCCNCC2)c1 | 9.14 | 6.87 | – |
| CCOc1cc(N2CCCNCC2)cnc1Br | 9.60 | 6.07 | – |
| Clc1ccc([C@H]2C[C@@H]3CC[C@H]2N3)cn1 | – | – | 10.01 |
| O=c1cccc2n1CC1CNCC2C1 (stereo not given) [CAS_485-35-8] | 9.02 | 6.53 | 8.09 |
| CCOc1cncc(N2CCCNCC2)c1 [NS3573, 2] | 9.21 | 5.00 | 8.66 |
| Brc1ccc(N2CCCNCC2)cn1 [NS3920, 4] | 9.49 | 6.72 | – |
